Where two headings read alike, the source gives them in different places.

We go through one molecule from EP0385952A2, “Use of a naphthalenmethanamino derivative as antiinflammatory agent and pharmaceutical compositions containing it” (SANDOZ AG, priority 1989, dated 1990).

The target in test [1] is T1, 5-lipoxygenase (Homo sapiens, UniProt P09917).
T1 construct: endogenous in cells
T1 sequence (P09917 1-674): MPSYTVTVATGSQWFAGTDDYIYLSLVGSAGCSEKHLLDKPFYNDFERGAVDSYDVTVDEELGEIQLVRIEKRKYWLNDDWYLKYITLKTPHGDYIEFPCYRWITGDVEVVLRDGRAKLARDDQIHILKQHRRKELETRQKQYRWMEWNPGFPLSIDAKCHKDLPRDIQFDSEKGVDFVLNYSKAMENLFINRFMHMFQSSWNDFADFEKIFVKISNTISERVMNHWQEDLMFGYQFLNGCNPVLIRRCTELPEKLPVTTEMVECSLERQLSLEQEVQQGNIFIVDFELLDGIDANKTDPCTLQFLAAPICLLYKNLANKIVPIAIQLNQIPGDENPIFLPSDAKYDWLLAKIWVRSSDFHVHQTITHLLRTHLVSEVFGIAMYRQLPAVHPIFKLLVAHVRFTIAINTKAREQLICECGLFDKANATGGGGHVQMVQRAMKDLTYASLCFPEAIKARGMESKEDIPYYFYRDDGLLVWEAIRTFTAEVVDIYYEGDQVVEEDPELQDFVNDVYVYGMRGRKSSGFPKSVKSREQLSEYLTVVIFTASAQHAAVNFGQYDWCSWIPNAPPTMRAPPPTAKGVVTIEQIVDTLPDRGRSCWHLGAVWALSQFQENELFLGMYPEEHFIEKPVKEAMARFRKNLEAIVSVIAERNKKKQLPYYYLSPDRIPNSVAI
Put plainly: 5-lipoxygenase inhibition (neutrophil functions). The note with it: read-out: IC₅₀ for 5-lipoxygenase. In kind it is cell-based.

In test [2] the test system is HACAT cell line. As to the kind of experiment: Modulation of keratinocyte gene expression and NAP1/IL-8 protein release. It is filed as cell-based, human. The following applies: for inhibition at 10 µM: Homo sapiens, HaCaT, ELISA. The procedure: The HACAT cell line is grown in 200 ml culture flasks in KGM medium (Clonetics) at 0.06 mM Ca until 50 % confluency. Thereafter cells are starved in KBM medium (Clonetics) for 2 days. The resulting preconfluent cells are then stimulated with αTNF (Genzyme, 500 or 1000 U/ml) or IL-1α (Boehringer, 200 U/ml) obtained from stock solutions and further diluted in KBM medium for the indicated times in the presence of test substance. At the end of the incubation period total cellular RNA is extracted as described above under 1.1.5. 20 µg RNA is run on 1 % formaldehyde agarose gels and transferred onto hybond N filters (Amersham) in a northern capillary transfer using 20xSSC. The filters are then baked for 2 hours and prehybridized for 4 hours. Hybridization (16 hours) and washing are performed at 65°C using oligonucleotide probes for NAP1/IL-8. For control, blots are rehybridised with an actin probe (Oncor). Concentrations of NAP1/IL-8 in the supernatants of the keratinocyte cultures are determined using a solid phase double ligand ELISA.
For orientation: In an ELISA, binding on a coated surface is turned into a signal by an enzyme label.

The test system of test [3] is human cell line Mono-Mac-6. As to the kind of experiment: LPS-induced NAP1/IL-8, αTNF- and IL-1β-mRNA accumulation (RNA blotting). It is filed as cell-based. Here is the method:
Human Mono-Mac-6 cells, which have many of the phenotypic and functional characteristics of mature peripheral blood monocytes [H. Ziegler et al, Int. J. Cancer 41 (1988) 456-461] are grown up to 10⁶ cells/ml im RPMI 1640 medium supplemented with 10 % FCS, 1 % pen/strep and 0.25 % amphotericin. In each of 6 activation experiments 10⁷ cells are incubated for 4 hours at 37°C and 5 % CO₂. LPS is used in a concentration of 1 µg/ml and the test substance in concentrations of 10⁻⁵ M to 10⁻⁷ M.
After induction times the cells are pelleted [5 min, 1200 rpm, room temperature]. Total cellular RNA is extracted from the pelleted cells using the guanidinium isothiocyanate/cesium chloride method of J.M. Chirgwin et al., Biochemistry 18 (1979) 5294-5299. 10 µg samples of the extracted RNA are size-fractionated by 1.2 % formaldehyde agarose gel electrophoresis [T. Maniatis et al., Molecular Cloning: A Laboratory Manual, Cold Spring Harbour, New York (1982) p. 187-206], transferred to synthetic membranes (Hybond N, Amersham) with 20xSSC (1xSSC is 150 mM NaCl, 15 mM sodium citrate, pH 7.0) overnight. The filters are baked for 2 hours at 65°C and prehybridized for 4 hours at 65°C in 5xSSC, 10x Denhardt's solution (1x Denhardt's solution is 0.02 % bovine serum albumin, 0.02 % polyvinyl pyrrolidone, 0.02 % ficoll), 10 % dextrane sulphate, 20 mM sodium phosphate pH 7.0, 7 % SDS, 100 µg/ml sonicated salmon sperm DNA, and 100 µg/ml polyA. ³²P-labelled synthetic NAP1/IL8, αTNF and IL-1β oligonucleotide probes are used as the hybridization probes. Hybridization is performed at 65°C in the pre-hybridization buffer containing the labelled probe for 16 hours. The blots are washed once in 5 % SDS, 3xSSC, 10x Denhardt's solution, 20 mM sodium phosphate pH 7.0 for 30 minutes at 65°C, and once in 1xSSC, 1 % SDS at 65°C for 30 minutes. Filters are exposed at -70°C to KODAK XAR-5 films using intensifying screens. After washing for 30 minutes in 0.1 % SDS at 65°C, blots are reused for a second hybridization with a β-actin specific oligonucleotide probe to quantitate the mRNA amounts.

The subject of test [4] is OF₁-mouse resident peritoneal macrophages. Put plainly: Zymosan-induced release of TXB₂, PGE₂ and LTC₄. In kind it is cell-based. The following applies: Peritoneal macrophage, 2 hours. The procedure:
The test compound is added in various concentrations to monolayers of OF₁-mouse resident peritoneal macrophages isolated as described in J. Schnyder and M. Baggiolini, J. Exp. Med. 148 (1978) 435-450. 0.5 ml of the suspension containing 1.2 x 10⁶ cells/ml DMEM (Dulbecco's modified Eagles medium, non-essential amino acids, 2 mM L-glutamine, 100 U/ml penicillin/streptomycin) containing 2 % heat-inactivated fetal calf serum and 20 U heparin/ml is added to each well of 24-well plates (diameter 1.6 cm) and allowed to adhere at 37°C for 2 hours in 5 % CO₂/air. The monolayers are then washed with PBS and 0.5 ml DMEM containing 1 % heat-inactivated fetal calf serum added. Various concentrations of the test substance in the same medium (containing a maximum final concentration of 1 % DMSO) are added, the final volume being 0.98 ml, and after 10 minutes at 37°C, the cells are stimulated by addition of 20 µl of a 1-20 v/v dilution of zymosan particles (Sigma Chemie, Deisenhofen, FRG) in 50 mg/ml PBS. After 2 hours at 37° C, the media are removed, centrifuged at 1300 g for 5 minutes and decanted. The cells are lysed with 1ml 0.01 % digitonin. The supernatants are then analysed by radioimmunoassay procedures for thromboxane B₂, prostaglandin E₂ and leukotriene C₄. Lactate dehydrogenase activities in the medium and cell lysates are also measured as an indication of cell toxicity.

Setting [5] is: remaining level, 10.0 µM, LPS 1 µg/ml, 4 hours.

For `CN(C/C=C/c1ccc(O)cc1)Cc1cccc2ccccc12` [compound of the invention, (E)-N-methyl-N-[3-(4-hydroxyphenyl)-2-propenyl]-1-naphthalene-methanamine], the IC50 in test [1] was 44 µM; in test [4] (read-out: IC₅₀ for LTC₄), 8 µM; in test [4] (read-out: IC₅₀ for PGE₂) it was 1.5 µM; in test [4] (read-out: IC₅₀ for TXB₂) it was 6 µM. Besides, the inhibition at 10 µM in test [2] (read-out: inhibition of IL-1α-stimulated release of NAP1/IL-8) is 40%; in test [2] (read-out: inhibition of αTNF-stimulated release of NAP1/IL-8), 90%. Besides, in test [2] (remaining level, 20.0 µM), the “αTNF-induced NAP1/IL-8 mRNA accumulation decreased to” value came out at 60%. Besides, in test [3] (mono-mac 6 cell line, summary statement), the “concentration inhibiting lps-induced transcription of nap-1/il-8, αtnf and il-iβ” value is listed as “about 10 µm”. In addition, the “LPS-induced IL-1β-mRNA accumulation decreased to” value in test [3] (setting [5]) turned out to be 50%. The “LPS-induced NAP1/IL-8-mRNA accumulation decreased to” value in test [3] (setting [5]) was found to be 20%. Moreover, the “LPS-induced αTNF-mRNA accumulation decreased to” value in test [3] (setting [5]) amounted to 10%.
